Common to all, as to test: bioluminescence peak-height (V0) kinetics
Experiment [1] has as its target T1, Luc2 (Photinus pyralis, UniProt P08659).
T1 construct: mammalian codon optimized P. pyralis Luc; pGEX-6P-2, E. coli BL21(DE3)pLysS, GST removed, N-terminal GlyProLeuGlySer kept; Mut51 from pET28a (His-tag)
The class given is biochemical. The conditions noted are these: Mg-ATP, O2; assay details in supplement; read-out: Km (μM) ^4. From the text:
(§1) bioluminescence peak-height (V0) kinetics on Luc2

Experiment [2] concerns the target T2, Luc2 (Photinus pyralis, UniProt P08659, F243M/S347G, form not given).
T2 construct: mammalian codon optimized P. pyralis Luc; pGEX-6P-2, E. coli BL21(DE3)pLysS, GST removed, N-terminal GlyProLeuGlySer kept; Mut51 from pET28a (His-tag)
Type of experiment: biochemical. The conditions noted are these: Mg-ATP, O2; assay details in supplement; Mut51, His-tagged; read-out: Km (μM) ^4.
Text: as §1

The subject of experiment [3] is T3, CBR (tested as CBR2, CBR2opt).
T3 construct: mouse codon optimized; pGEX-6P-2, E. coli BL21(DE3)pLysS, GST removed, N-terminal GlyProLeuGlySer kept
The class given is biochemical. The conditions noted are these: Mg-ATP, O2; assay details in supplement; read-out: Km (μM) ^4. From the text:
bioluminescence peak-height (V0) kinetics on CBR (tested as CBR2, CBR2opt)

In another experiment the test system is T4, PLR3.
T4 construct: G246A/F250H in mammalian codon optimized PLR1; pGEX-6P-2, N-terminal GlyProLeuGlySer kept
The class given is biochemical, Photinus pyralis / Luciola italica. The conditions noted are these: Mg-ATP, O2; assay details in supplement; read-out: Km (μM) ^4. From the text:
bioluminescence peak-height (V0) kinetics on PLR3

The target of a further experiment is T5, Fluc_red (Photinus pyralis, UniProt P08659, S284T/E354R/D357Y, form not given).
T5 construct: pET16b, His-tag
Type of experiment: biochemical. The conditions noted are these: Mg-ATP, O2; assay details in supplement; read-out: Km (μM) ^4. From the text: bioluminescence peak-height (V0) kinetics on Fluc_red

T1 sequence (P08659 whole entry): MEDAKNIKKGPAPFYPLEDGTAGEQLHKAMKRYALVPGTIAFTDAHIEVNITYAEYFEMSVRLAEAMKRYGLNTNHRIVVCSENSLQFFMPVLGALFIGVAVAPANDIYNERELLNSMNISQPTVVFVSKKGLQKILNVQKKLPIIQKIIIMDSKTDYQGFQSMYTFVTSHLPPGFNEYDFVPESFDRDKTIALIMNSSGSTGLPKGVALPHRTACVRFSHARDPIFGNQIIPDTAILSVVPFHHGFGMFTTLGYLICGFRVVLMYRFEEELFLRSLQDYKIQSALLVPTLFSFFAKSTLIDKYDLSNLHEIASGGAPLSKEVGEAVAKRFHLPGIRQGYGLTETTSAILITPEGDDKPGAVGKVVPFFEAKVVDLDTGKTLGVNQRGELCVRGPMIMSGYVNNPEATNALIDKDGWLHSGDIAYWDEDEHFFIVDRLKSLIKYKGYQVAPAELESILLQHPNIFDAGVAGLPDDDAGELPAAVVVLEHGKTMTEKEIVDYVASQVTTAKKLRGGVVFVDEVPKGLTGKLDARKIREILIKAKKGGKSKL
T5 sequence (P08659 whole entry S284T/E354R/D357Y, form open): as the sequence (P08659 whole entry) above, with S284T, E354R, D357Y counted along it
T2 sequence (P08659 whole entry F243M/S347G, form open): as the sequence (P08659 whole entry) above, with F243M, S347G counted along it

Usually Km stands for the substrate concentration at which the rate is half of its maximum. Turning to `O=C(O)[C@H]1CSC(c2nc3c(Br)cc(O)cc3s2)=N1` [4′-BrLuc, (S)-2-(4-bromo-6-hydroxybenzo[d]thiazol-2-yl)-4,5-dihydrothiazole-4-carboxylic acid], the Km at Luc2 [1] was found to be 44 ± 11 µM; on Luc2 [2], 2.3 ± 0.2 µM.
`O=C(O)[C@H]1CSC(c2nc3cc4c(cc3s2)NCC4)=N1` [CycLuc1, (S)-2-(6,7-dihydro-5H-thiazolo[4,5-f]indol-2-yl)-4,5-dihydrothiazole-4-carboxylic acid]: the Km on Luc2 [1] came out at 0.61 ± 0.2 µM.
As for `O=C(O)[C@H]1CSC(c2nc3ccc(O)cc3s2)=N1` [LH2, (S)-2-(6-hydroxybenzo[d]thiazol-2-yl)-4,5-dihydrothiazole-4-carboxylic acid], the Km in experiment [3] was found to be 250 ± 24 µM.
Take `Nc1ccc2nc(C3=N[C@@H](C(=O)O)CS3)sc2c1` [NH2-LH2, (S)-2-(6-aminobenzo[d]thiazol-2-yl)-4,5-dihydrothiazole-4-carboxylic acid]: the Km in experiment [3] amounted to 9.5 ± 1.3 µM.
As to `Nc1ccc2c(ccc3nc(C4=N[C@@H](C(=O)O)CS4)sc32)c1` [NH2-NpLH2], the values for the Km (on Luc2 [1]; in experiment [3]) were 3.3 ± 0.6 µM and 0.8 ± 0.1 µM, respectively.
On to `Nc1cnc2c(ccc3nc(C4=N[C@@H](C(=O)O)CS4)sc32)c1` [NH2-QLH2], for which the Km on Luc2 [1] was 1.5 ± 0.2 µM.
As to `O=C(O)[C@H]1CSC(c2nc3ccc4cc(O)ccc4c3s2)=N1` [OH-NpLH2], the Km in experiment [3] worked out at 0.93 ± 0.13 µM.
With `O=C(O)[C@H]1CSC(c2nc3ccc4cc(O)cnc4c3s2)=N1` [OH-QLH2], the Km is 1.6 ± 0.1 µM in the experiment on PLR3 and 1.8 ± 0.6 µM at Luc2 [1].
As for `O=C(O)[C@H]1CSC(/C=C/c2nc3ccc(O)cc3s2)=N1` [iLH2, (S,E)-2-(2-(6-hydroxybenzo[d]thiazol-2-yl)vinyl)-4,5-dihydrothiazole-4-carboxylic acid], the Km on Fluc_red turned out to be 0.17 ± 0.05 µM; on Luc2 [1], 0.13 ± 0.05 µM; in experiment [3], 0.9 ± 0.08 µM.

(Values after article PMC8910387, “Systematic Comparison of Beetle Luciferase-Luciferin Pairs as Sources of Near-Infrared Light for In Vitro and In Vivo Applications” (International Journal of Molecular Sciences, 2022).)
